Test results: patent US5620676A, “Biologically active ATP analogs” (priority 1995, dated 1997)
“Also recorded” adds a separate entry of the source. Like-named read-outs stand apart in the source and are kept apart here.

Key:
[1] = system: P2Y receptors; test: Overall activity in P2Y receptor systems
Description: Phospholipase C activity: Stimulation of inositol phosphate formation by compounds of the present invention was measured in turkey erythrocyte membranes as described by Harden et al., supra and Boyer et al., supra. The K0.5 values were averaged from 3-8 independently determined dose-response curves for each compound. Briefly, one ml of washed turkey erythrocytes was incubated in inositol-free medium (DMEM; Gibco) with 0.5-1 mCi of 2-[^3 H]myoinositol (20 Ci/mmol; American Radiolabeled Chemicals Inc., St. Louis, Mo.)for 18-24 h in a humidified atmosphere of 95% air 5% CO2 at 37° C. Erythrocyte ghosts were prepared by rapid lysis in hypotonic buffer (5 mM sodium phosphate, pH 7.4, 5 mM MgCl2, 1 mM EGTA) as described by Boyer et al., supra. Phospholipase C activity was measured in 25 μl of [^3 H]inositol-labeled ghosts (≈175 μg of protein, 200-500,000 cpm/assay) in a medium containing 424 μM CaC12, 0.91 mM MgSO4, 2 mM EGTA, 115 mM KCl, 5 mM KH2 PO4, and 10 mM Hepes, pH 7.0. Assay (100 μl or 200 μl final volume) contained 1 μM GTPγS and the indicated concentrations of nucleotide analogs. Ghosts were incubated at 30° C. for 5 min, and total [^3 H]inositol phosphates were quantitated after purification by anion exchange chromatography according to Harden et al. (supra) and Boyer et al. (supra).
Muscular relaxation/contraction: Relaxant responses mediated via P2Y receptors were examined in guinea pig taenia coli, rabbit aorta, and rabbit mesenteric artery, as described by Hoyle et al. (Br. J. Pharmacol., 107, 367-374 (1992a)), Burnstock et al., (Br. J. Pharmacol., 90, 383-391 (1987a)), and Rubino et al., (Eur. J. Pharmacol., 212, 237-240 (1992)). Contractile responses mediated via P2X receptors were examined in the guinea pig urinary bladder and vas deferens, and rabbit saphenous artery, also using standard methods (see Hoyle et al., supra., 1992; Hoyle et al., Br. J. Pharmacol., 99, 617-621 (1990); and Burnstock et al., Br. J. Pharmacol., 90, 111-120 (1987b)).

[2] = system: P2X receptors; test: Overall activity in P2X receptor systems
[3] = biological target: T1, P2Y receptor (turkey erythrocyte membranes) (Meleagris gallopavo, UniProt P49652); test: Stimulation of phospholipase C (inositol phosphate formation) in turkey erythrocyte membranes; assay type: biochemical; conditions: for activity/potency in words, turkey erythrocyte / EC50: turkey erythrocyte membranes; for EC50: mean ± S.E.M. for at least 2 determinations, read-out: phosphatidyl inositol metabolism (K0.5, nM) erythrocyte
T1 construct: from tissue; host or cells: washed turkey erythrocytes, ghosts prepared by hypotonic lysis
Procedure, shortened: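 Erythrocytes were labelled 18-24 h at 37 °C with [3H]myoinositol, and ghosts were made by hypotonic lysis. Ghosts (≈175 μg protein) were incubated 5 min at 30 °C in Hepes buffer pH 7.0 with 1 μM GTPγS and nucleotide analogs. Total [3H]inositol phosphates were purified by anion exchange; K0.5 averaged from 3-8 dose-response curves.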

[4] = system: P2Y receptor (aorta endothelium); test: Relaxation of noradrenalin-contracted rabbit aorta; conditions: for activity/potency/selectivity in words, aorta: rabbit aorta endothelial P2Y receptor; for relaxation pD2, aorta: rabbit aorta, log molar units
[5] = system: P2Y receptor (mesenteric artery); test: Relaxation of rabbit mesenteric artery
[6] = system: P2X and P2Y receptors; test: Overall activity in the seven P2X and P2Y preparations
[7] = biological target: T2, P2Y receptor (taenia coli) (Cavia porcellus, UniProt P59902); test: Relaxation of carbachol-contracted guinea pig taenia coli
T2 construct: Relaxant responses mediated via P2Y receptors were examined in guinea pig taenia coli; from tissue; host or cells: guinea pig taenia coli (carbachol-contracted)
Procedure, shortened: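 Guinea pig taenia coli precontracted with 50 nM carbachol; relaxation to applied P2Y agonists expressed as percentage relaxation against negative log molar agonist concentration.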

[8] = biological target: T3, P2X receptor (urinary bladder) (Cavia porcellus, UniProt A0A286XVA9); test: Contraction of guinea pig isolated urinary bladder detrussor muscle; conditions: guinea pig urinary bladder
T3 construct: guinea pig isolated urinary bladder detrussor muscle; from tissue; host or cells: guinea pig isolated urinary bladder detrusor muscle

[9] = biological target: T4, P2X receptor (vas deferens) (Cavia porcellus, UniProt A0A286XVA9); test: Contraction of guinea pig isolated vas deferens
T4 sequence (A0A286XVA9 1-399): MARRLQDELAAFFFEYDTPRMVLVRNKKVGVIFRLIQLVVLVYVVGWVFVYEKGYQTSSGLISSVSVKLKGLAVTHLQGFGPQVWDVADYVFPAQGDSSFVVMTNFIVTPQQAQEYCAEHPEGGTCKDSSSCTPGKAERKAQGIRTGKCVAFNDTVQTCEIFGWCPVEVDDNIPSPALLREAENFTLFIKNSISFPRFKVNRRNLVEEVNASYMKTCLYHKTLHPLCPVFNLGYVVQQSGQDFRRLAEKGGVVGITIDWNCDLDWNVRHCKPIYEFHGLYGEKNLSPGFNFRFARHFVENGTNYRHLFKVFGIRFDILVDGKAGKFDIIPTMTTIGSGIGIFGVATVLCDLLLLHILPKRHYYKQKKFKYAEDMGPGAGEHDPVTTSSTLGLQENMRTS

[10] = biological target: T5, P2X receptor (saphenous artery) (Oryctolagus cuniculus, UniProt G1U3D6); test: Contraction of rabbit saphenous artery; conditions: rabbit saphenous artery
T5 construct: and rabbit saphenous artery; from tissue; host or cells: rabbit saphenous artery
T5 sequence (G1U3D6 1-399): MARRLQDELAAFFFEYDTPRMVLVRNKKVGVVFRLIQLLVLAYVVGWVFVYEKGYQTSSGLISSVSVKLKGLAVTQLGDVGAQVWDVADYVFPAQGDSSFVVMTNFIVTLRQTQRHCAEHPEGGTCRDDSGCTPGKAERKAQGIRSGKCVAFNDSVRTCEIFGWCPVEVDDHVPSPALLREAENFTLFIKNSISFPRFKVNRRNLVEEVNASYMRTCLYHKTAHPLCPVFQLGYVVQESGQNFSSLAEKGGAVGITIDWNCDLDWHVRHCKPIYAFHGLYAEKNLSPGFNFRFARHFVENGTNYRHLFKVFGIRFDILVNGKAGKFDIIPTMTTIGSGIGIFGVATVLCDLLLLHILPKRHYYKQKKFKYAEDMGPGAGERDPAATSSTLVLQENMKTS
Procedure, shortened: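 Contraction of isolated rabbit saphenous artery, standard organ-bath methods; responses at 10 μM expressed as percentage of contraction produced by 1 μM α,MeATP. Highest analogue concentrations tested were 3-30 […].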

[11] = listed as 8-(6-Aminohexylamino)ATP
[12] = listed as 8-(6-amino-hexylamino)ATP
[13] = listed as adenosine-N1-oxide triphosphate

T2 sequence (P59902 whole entry): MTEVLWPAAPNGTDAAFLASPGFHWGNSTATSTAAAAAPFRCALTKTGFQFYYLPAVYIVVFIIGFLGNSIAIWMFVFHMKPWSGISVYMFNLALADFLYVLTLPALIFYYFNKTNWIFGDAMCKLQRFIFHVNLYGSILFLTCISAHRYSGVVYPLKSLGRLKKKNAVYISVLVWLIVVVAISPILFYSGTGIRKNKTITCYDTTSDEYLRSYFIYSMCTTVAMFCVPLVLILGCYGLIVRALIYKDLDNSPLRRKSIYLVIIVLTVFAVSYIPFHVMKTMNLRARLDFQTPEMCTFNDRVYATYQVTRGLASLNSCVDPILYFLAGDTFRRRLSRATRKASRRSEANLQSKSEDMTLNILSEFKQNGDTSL
T1 sequence (P49652 whole entry): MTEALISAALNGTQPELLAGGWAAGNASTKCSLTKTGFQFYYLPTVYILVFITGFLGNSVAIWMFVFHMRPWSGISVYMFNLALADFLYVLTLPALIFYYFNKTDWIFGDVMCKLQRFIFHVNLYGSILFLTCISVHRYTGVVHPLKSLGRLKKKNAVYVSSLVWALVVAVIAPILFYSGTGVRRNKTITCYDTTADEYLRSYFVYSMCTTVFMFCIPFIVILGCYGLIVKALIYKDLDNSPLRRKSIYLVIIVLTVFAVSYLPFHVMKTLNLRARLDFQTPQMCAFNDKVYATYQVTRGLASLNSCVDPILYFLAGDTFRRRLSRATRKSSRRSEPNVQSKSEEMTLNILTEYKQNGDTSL

| SMILES | EC50 [3] | overall activity in words, P2Y systems [1] | overall activity in words, P2X systems [2] | relaxation pD2, aorta [4] | overall activity in words, all preparations [6] | activity/potency in words, bladder [8] | activity/potency in words, vas deferens [9] | also measured |
| --- | --- | --- | --- | --- | --- | --- | --- | --- |
| Nc1ncnc2c1ncn2[C@H]1C[C@H](O)[C@@H](COP(=O)(O)OP(=O)(O)OP(=O)(O)O)O1 [2'-Deoxy-ATP, 2'-deoxy-ATP, reference compound] | 19200 nM |  | inactive in the P2X receptor systems |  | inactive in the five other preparations |  |  | activity/potency in words, taenia coli ([7]; guinea pig taenia coli): roughly equipotent with ATP in the taenia coli; activity/potency in words, taenia coli ([7]; guinea pig taenia coli, listed as 2'-deoxy-ATP): selectivity; EC50 ([7]; guinea pig taenia coli, log molar units, read-out: relaxation pD2, taenia coli (converted)): 2.51 µM; fold less potent than ATP, turkey erythrocyte ([3]; relative to ATP): 7 -fold; activity/potency in words, turkey erythrocyte [3]: seven times less potent than ATP in the turkey erythrocyte |
| Nc1c2ncn([C@@H]3O[C@H](COP(=O)(O)OP(=O)(O)OP(=O)(O)O)[C@@H](O)[C@H]3O)c2nc[n+]1[O-] [Adenosine N1-oxide 5'-triphosphate, adenosine N1-oxide 5'-triphosphate, reference compound] | 16900 nM | specific for P2Y receptors | inactive in the P2X receptor systems | 6.7 |  |  |  | EC50 [7]: 12.6 µM; activity/potency in words, turkey erythrocyte [3]: somewhat active in turkey erythrocytes; activity/potency in words, turkey erythrocyte [3, 13]: less potent than ATP at the turkey erythrocyte P2Y receptor; activity/potency/selectivity in words, aorta [4]: selective for the endothelial receptors of the rabbit aorta versus the mesenteric artery and taenia coli; activity/potency/selectivity in words, aorta [4, 13]: much more potent than ATP; activity/potency in words, mesenteric artery [5]: no activity at the mesenteric artery P2Y receptor |
| CC1(C)O[C@@H]2[C@H](O1)[C@@H](COP(=O)(O)OP(=O)(O)OP(=O)(O)O)O[C@H]2n1cnc2c(N)ncnc21 [2',3'-Isopropylidene-ATP, 2',3'-Isopropylidene adenosine 5'-triphosphate] | 201000 nM |  |  |  | Neither was particularly active at either P2X or P2Y receptors | limited activity in the urinary bladder | inactive in the vas deferens | activation at 10 µM ([10]; 10 μM, read-out: response at 10 μM relative to the contraction produced by 1 μM α,MeATP, saph. artery): 7.7%; activity/potency/selectivity in words, aorta [4]: high selectivity |
| Nc1ncnc2c1ncn2[C@@H]1O[C@H](COP(=O)(O)OP(=O)(O)OP(=O)(O)O)[C@@H](N)[C@H]1O [3'-Amino-3'deoxy-ATP, 3'-Amino-3'-deoxyadenosine 5'-triphosphate, reference compound] | 193 nM |  |  | 6.4 | generally enhanced potency at P2 receptors | more or less as potent as ATP | more or less as potent as ATP | activity/potency in words, saphenous artery [10]: inactive in the saphenous artery; EC50 [7]: 3.98 µM; activity/potency in words, taenia coli ([7]; guinea pig taenia coli): almost as potent as ATP in the taenia coli; times more potent than ATP, turkey erythrocyte ([3]; relative to ATP): approximately 15 times |

Now from value to molecule, other results behind:

| EC50 [3] | SMILES | overall activity in words, P2Y systems [1] | overall activity in words, P2X systems [2] | relaxation pD2, aorta [4] | overall activity in words, all preparations [6] | activity/potency in words, bladder [8] | activity/potency in words, vas deferens [9] | also measured |
| --- | --- | --- | --- | --- | --- | --- | --- | --- |
| 8200 ± 1200 nM | NCCCCCCNc1nc2c(N)ncnc2n1[C@@H]1O[C@H](COP(=O)(O)OP(=O)(O)OP(=O)(O)O)[C@@H](O)[C@H]1O [8-(6-Aminohexylamino)-ATP, 8-(6-aminohexylamino)-ATP, reference compound] | specific for P2Y receptors | inactive in the P2X receptor systems | 7.3 |  |  |  | activity/potency in words, turkey erythrocyte [3, 11]: somewhat active in turkey erythrocytes; activity/potency in words, turkey erythrocyte [3, 12]: less potent than ATP at the turkey erythrocyte P2Y receptor; activity/potency/selectivity in words, aorta [4, 11]: selective for the endothelial receptors of the rabbit aorta versus the mesenteric artery and taenia coli; activity/potency/selectivity in words, aorta [4, 12]: much more potent than ATP; activity/potency/selectivity in words, aorta ([4]; listed as 8-(6-aminohexylamino)ATP): high selectivity; activity/potency in words, mesenteric artery [5]: no activity at the mesenteric artery P2Y receptor |
| > 100000 nM | CC1(C)O[C@@H]2[C@H](O1)[C@@H](COP(=O)(O)O)O[C@H]2n1cnc2c(N)ncnc21 [2',3'-Isopropylidene-AMP, 2',3'-Isopropylidene AMP] |  | inactive in the P2X receptor systems |  | Neither was particularly active at either P2X or P2Y receptors |  |  | activity/potency/selectivity in words, aorta ([4]; listed as 2',3'-isopropylidene-AMP): a potent agonist at the rabbit endothelial P2Y receptor; activity/potency/selectivity in words, aorta ([4]; listed as Isopropylidene-AMP): specific for the aortic endothelial P2Y receptor |
| 75500 nM | Nc1ncnc2c1ncn2[C@@H]1O[C@H](COP(=O)(O)OP(=O)(O)OP(=O)(O)O)C[C@H]1O [3'-Deoxy-ATP, 3'-deoxy-ATP, reference compound] | less potent than 2'-deoxy-ATP at P2Y receptors |  |  | greatly reduce or abolish activity within most P2X and P2Y preparations | as active as ATP, or nearly so; also recorded: less potent or equal to potency of ATP | as active as ATP, or nearly so; also recorded: equivalent to the effect of ATP | activity/potency in words, saphenous artery [10]: no effect |
